Tests used:
[1] = target: T1, RAC-alpha serine/threonine-protein kinase (Homo sapiens, UniProt P31749); experiment: Inhibition of Akt1 at 50 uM
[2] = target: Protein kinase C gamma type (Homo sapiens, UniProt P05129); experiment: Inhibition of PKCgamma at 10 uM ATP
[3] = target: MAP kinase-activated protein kinase 2 (Homo sapiens, UniProt P49137); experiment: Inhibition of MAPKAP2 at 10 uM ATP
[4] = target: T2, Serine/threonine-protein kinase Chk1 (Homo sapiens, UniProt O14757); experiment: Inhibition of Chk1 at 10 uM ATP
T2 sequence (O14757 whole entry): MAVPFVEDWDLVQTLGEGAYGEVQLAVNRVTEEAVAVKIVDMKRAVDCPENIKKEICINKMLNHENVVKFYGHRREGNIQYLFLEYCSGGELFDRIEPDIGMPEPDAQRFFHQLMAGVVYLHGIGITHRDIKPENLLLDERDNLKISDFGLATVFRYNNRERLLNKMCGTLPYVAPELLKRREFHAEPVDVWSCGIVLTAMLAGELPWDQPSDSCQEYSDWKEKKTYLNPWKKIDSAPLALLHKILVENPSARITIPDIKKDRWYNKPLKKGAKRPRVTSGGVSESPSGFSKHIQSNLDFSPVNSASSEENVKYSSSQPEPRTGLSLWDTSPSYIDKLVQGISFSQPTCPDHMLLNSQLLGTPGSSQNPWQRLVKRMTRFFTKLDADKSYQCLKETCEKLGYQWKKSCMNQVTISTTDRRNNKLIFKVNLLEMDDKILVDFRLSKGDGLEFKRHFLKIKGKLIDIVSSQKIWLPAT

[5] = target: Cyclin-dependent kinase 1 (Homo sapiens, UniProt P06493); experiment: Inhibition of CDK1 at 10 uM ATP
Chain of Cyclin-dependent kinase 1 (P06493 whole entry): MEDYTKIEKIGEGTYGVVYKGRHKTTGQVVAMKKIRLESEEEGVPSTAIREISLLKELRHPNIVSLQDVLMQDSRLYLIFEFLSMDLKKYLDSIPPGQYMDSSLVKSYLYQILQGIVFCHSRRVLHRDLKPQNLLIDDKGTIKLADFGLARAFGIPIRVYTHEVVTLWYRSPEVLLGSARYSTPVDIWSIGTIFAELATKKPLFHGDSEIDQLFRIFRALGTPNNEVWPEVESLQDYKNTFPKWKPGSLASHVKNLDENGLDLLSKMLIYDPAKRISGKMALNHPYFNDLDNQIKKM

[6] = target: Vascular endothelial growth factor receptor 3 (Homo sapiens, UniProt P35916); experiment: Inhibition of FLt4 at 1.0 mM ATP
Chain of Vascular endothelial growth factor receptor 3 (P35916 whole entry): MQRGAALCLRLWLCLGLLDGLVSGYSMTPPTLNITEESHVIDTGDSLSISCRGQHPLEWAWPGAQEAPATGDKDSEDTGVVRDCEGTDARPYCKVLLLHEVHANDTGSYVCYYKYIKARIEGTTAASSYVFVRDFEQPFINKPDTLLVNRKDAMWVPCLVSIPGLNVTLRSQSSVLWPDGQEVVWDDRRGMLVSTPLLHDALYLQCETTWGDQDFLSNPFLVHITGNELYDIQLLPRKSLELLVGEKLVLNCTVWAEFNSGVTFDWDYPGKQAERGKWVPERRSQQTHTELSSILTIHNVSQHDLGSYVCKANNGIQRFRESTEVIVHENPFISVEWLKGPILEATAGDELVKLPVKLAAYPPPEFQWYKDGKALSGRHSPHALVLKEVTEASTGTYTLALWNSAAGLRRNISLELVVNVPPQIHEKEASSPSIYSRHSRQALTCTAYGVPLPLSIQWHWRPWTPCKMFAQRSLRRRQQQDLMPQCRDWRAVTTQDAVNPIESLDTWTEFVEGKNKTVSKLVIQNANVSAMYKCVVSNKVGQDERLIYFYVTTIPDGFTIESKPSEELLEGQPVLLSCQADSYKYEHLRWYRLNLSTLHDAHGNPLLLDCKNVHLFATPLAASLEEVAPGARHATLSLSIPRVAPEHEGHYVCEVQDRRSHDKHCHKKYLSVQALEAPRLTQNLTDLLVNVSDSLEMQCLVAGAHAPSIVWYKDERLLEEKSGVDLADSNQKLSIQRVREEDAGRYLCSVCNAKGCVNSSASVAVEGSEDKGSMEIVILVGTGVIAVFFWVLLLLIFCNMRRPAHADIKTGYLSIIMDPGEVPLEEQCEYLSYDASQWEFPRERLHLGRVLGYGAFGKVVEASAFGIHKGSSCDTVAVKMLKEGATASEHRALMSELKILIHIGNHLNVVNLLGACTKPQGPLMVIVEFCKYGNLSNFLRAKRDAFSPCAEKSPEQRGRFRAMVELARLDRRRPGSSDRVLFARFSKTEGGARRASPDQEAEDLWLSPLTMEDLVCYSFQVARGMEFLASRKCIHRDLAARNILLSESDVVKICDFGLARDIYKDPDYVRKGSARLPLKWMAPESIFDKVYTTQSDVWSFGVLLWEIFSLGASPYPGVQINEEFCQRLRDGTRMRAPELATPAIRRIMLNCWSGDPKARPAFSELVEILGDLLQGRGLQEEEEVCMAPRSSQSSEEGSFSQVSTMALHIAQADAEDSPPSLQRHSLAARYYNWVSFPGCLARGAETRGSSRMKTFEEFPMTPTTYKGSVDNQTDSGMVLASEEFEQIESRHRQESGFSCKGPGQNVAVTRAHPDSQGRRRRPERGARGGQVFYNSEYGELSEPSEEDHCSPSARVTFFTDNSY

Casein kinase II = Casein kinase II (Homo sapiens, UniProt P19784+P67870+P68400); experiment: Inhibition of CK2 at 10 uM ATP; assay type: protein-complex assay
[7] = target: Mitogen-activated protein kinase 1 (Homo sapiens, UniProt P28482); experiment: Inhibition of ERK2 at 10 uM ATP
Chain of Mitogen-activated protein kinase 1 (P28482 whole entry): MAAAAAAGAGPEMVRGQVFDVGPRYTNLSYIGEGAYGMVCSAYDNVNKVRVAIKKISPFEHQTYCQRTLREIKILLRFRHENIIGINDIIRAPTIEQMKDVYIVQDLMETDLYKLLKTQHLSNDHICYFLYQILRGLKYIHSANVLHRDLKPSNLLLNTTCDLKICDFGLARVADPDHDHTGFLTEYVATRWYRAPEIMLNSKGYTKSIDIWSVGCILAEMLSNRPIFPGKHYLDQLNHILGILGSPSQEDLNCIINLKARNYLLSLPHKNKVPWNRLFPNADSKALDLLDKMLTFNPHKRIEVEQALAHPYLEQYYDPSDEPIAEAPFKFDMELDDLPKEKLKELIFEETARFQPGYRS

[8] = target: T1, RAC-alpha serine/threonine-protein kinase; experiment: Activity against GSK3 phosphorylation in FL5.12-Akt1 cells; assay type: functional, cell-based
[9] = target: RAC-gamma serine/threonine-protein kinase (Homo sapiens, UniProt Q9Y243); experiment: Inhibition of Akt3 at 10 uM ATP
[10] = target: Protein kinase C delta type (Homo sapiens, UniProt Q05655); experiment: Inhibition of PKCdelta at 10 uM ATP
Chain of Protein kinase C delta type (Q05655 whole entry): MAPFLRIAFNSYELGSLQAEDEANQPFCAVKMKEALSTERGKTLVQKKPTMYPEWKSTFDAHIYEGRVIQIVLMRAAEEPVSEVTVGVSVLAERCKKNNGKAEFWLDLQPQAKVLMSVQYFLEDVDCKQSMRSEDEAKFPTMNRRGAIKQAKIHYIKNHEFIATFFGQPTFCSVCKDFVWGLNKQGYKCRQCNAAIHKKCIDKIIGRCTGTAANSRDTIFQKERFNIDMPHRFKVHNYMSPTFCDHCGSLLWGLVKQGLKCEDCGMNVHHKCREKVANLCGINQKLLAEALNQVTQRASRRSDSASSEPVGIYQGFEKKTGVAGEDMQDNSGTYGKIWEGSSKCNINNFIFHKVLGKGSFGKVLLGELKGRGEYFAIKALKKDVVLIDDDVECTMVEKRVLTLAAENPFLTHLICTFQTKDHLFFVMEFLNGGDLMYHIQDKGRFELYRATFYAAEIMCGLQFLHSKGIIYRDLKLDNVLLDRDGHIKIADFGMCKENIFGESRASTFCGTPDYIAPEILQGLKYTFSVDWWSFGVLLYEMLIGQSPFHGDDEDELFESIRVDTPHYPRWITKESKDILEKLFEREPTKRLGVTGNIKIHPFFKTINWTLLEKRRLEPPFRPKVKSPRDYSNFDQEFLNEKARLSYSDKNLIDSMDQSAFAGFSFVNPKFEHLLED

[11] = target: Proto-oncogene tyrosine-protein kinase Src (Homo sapiens, UniProt P12931); experiment: Inhibition of SRC kinase at 1.0 mM ATP
Chain of Proto-oncogene tyrosine-protein kinase Src (P12931 2-536 limits assumed): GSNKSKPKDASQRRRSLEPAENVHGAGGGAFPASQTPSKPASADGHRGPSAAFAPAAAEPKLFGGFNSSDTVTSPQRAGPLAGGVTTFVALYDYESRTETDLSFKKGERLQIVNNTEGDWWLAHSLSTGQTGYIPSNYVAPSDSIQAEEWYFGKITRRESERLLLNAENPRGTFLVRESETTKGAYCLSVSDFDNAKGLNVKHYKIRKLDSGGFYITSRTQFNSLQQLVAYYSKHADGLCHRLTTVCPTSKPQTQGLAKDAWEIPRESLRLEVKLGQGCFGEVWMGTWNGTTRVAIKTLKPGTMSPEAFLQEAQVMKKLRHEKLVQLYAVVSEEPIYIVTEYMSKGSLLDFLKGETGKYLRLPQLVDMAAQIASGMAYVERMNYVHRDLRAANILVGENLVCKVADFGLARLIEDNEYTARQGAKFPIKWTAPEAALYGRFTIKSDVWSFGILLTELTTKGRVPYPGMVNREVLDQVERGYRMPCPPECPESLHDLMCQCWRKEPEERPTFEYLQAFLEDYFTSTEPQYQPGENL

T1 sequence (P31749 whole entry): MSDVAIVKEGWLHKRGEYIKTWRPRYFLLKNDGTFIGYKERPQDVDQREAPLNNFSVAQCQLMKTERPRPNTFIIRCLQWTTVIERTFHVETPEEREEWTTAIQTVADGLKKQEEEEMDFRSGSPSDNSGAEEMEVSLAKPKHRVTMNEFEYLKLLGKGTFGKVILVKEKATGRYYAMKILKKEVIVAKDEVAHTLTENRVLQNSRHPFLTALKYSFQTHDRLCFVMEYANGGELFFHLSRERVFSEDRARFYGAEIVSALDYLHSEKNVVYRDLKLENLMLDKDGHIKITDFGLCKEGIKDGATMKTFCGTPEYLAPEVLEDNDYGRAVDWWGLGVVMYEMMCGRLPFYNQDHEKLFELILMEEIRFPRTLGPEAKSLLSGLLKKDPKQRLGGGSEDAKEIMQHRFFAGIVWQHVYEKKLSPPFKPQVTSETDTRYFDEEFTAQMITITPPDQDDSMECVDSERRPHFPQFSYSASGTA
Chain of MAP kinase-activated protein kinase 2 (P49137 whole entry): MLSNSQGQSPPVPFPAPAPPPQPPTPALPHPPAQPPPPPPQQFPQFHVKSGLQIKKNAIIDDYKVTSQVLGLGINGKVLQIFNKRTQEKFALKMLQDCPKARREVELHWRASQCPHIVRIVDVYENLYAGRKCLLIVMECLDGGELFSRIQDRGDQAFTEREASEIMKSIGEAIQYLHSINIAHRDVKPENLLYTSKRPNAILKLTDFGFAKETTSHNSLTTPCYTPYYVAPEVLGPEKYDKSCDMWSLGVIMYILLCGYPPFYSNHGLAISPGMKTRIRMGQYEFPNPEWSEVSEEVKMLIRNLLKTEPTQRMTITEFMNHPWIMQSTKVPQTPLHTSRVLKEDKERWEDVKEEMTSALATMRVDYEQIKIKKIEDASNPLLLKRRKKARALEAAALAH

Work on N[C@H](COc1cncc(NC(=O)c2cccnc2)c1)Cc1ccccc1 yielded an inhibition [1] of 26%.
With N[C@H](COc1cncc(-c2ccc([N+](=O)[O-])cc2)c1)Cc1c[nH]c2ccccc12 the inhibition [1] was 13%.
With N=C(N)c1ccc(-c2cncc(OC[C@@H](N)Cc3c[nH]c4ccccc34)c2)cc1 the inhibition [1] was 41%.
For N[C@H](COc1cncc(-c2ccccc2-c2ccncc2)c1)Cc1c[nH]c2ccccc12, the inhibition [1] was 10%.
N[C@H](COc1cncc(-c2cccc(S(N)(=O)=O)c2)c1)Cc1c[nH]c2ccccc12 gave an inhibition [1] of 0%.
For N[C@H](COc1cncc(NCc2ccncc2)c1)Cc1ccccc1, the inhibition [1] was 26%.
N[C@H](COc1cncc(NCc2cccnc2)c1)Cc1ccccc1 gave an inhibition [1] of 41%.
With N[C@H](COc1cncc(-c2ccc(S(N)(=O)=O)cc2)c1)Cc1c[nH]c2ccccc12 the inhibition [1] was 12%.
N=C(NO)c1ccc(-c2cncc(OC[C@@H](N)Cc3c[nH]c4ccccc34)c2)cc1 gave an inhibition [1] of 48%.
CC(=O)NCc1ccc(-c2cncc(OC[C@@H](N)Cc3c[nH]c4ccccc34)c2)cc1 showed an inhibition [1] of 3%.
For N[C@H](COc1cncc(-c2ccc3cnccc3c2)c1)Cc1c[nH]c2ccccc12, the IC50 [2] was 270 nM, the IC50 [3] was > 50000 nM and the IC50 [4] was 4200 nM. For the same compound, the IC50 [5] was 100 nM, the IC50 [6] was > 50000 nM and the IC50 (Casein kinase II) was 11800 nM. The IC50 [7] was 910 nM, the EC50 [8] was 1500 nM and the IC50 [9] was 35 nM. For the same compound, the IC50 [10] was 6100 nM and the IC50 [11] was > 50000 nM.

Source: ChEMBL document CHEMBL1146102, “Synthesis and structure-activity relationship of 3,4'-bispyridinylethylenes: discovery of a potent 3-isoquinolinylpyridine inhibitor of protein kinase B (PKB/Akt) for the treatment of cancer” (Bioorg Med Chem Lett, 2006)
